We go through 24 molecules from patent US20030176436A1, “Novel heterocyclic compounds as selective bacterial DHFR inhibitors and their uses thereof” (priority 2001, published 2003).

≈ marks a conversion by molar mass, not a printed value. Read-outs that look alike come from different tables or passages of the source.

In one test the target is T1, bacterial DHFR (bDHFR) (Escherichia coli, UniProt P0ABQ4).
T1 construct: gift of Eric Brown, McMaster University
The test can be described thus: DHFR enzyme assay, Ki determination, bacterial DHFR. The class given is biochemical, E. coli. As for the experimental part: Human and Bacterial DHFR: E. coli DHFR was kindly provided by Eric Brown of MacMaster University.
Dihydrofolic acid and NADPH were purchased from Sigma. Enzyme assays were adapted for microtitre format from a previously published procedure (2, 3). All assays were performed in a 250 μl volume in 96-well microtitre plates. Typical assays consisted of 20 nM DHFR (human or E. coli), 100 μM NADPH, and 50 μM dihydrofolic acid in 100 mM HEPES pH 8, 10 mM KCl, and 10 mM MgCl2. The assay was monitored spectrophotometrically for the conversion of NADPH to NADP+, which results in a decrease in absorbance at 340 nm.
The reaction was initiated by the addition of 125 μl of 100 μM dihydrofolic acid. The final concentrations in the assay were 20 nM DHFR, 100 μM NADPH, 50 μM dihydrofolic acid, and a range of 500 μM to 20 nM inhibitor compound. The final DMSO concentration was 2% of the total volume. Reactions were monitored as described above.

The test system of another test is S. aureus. The test can be described thus: Microdilution antimicrobial susceptibility test (MIC). The class given is cell-based. The settings on record: Staphylococcus aureus; MIC, average; read-out: S. aureus (μg/ml) avg. As for the experimental part:
Stock solutions of tested compounds were prepared in N,N-dimethylformamide (DMF) at a concentration of 5 mg/mL. Working solutions of the tested compounds were then prepared from the stock solutions, in Mueller-Hinton broth (MHB) with a starting concentration of 64 μg/mL.
Bacterial inocula were prepared from overnight culture (i.e., one fresh colony from agar plate in 5 ml MHB; H. influenzae was grown in MHB with the addition of yeast extract, haematin, and NAD), centrifuged 2×5 min/3000 rpm (for S. pneumoniae and H. influenzae, 2×10 min/3000 rpm), and dispensed in 5 ml of fresh MHB each time, such that the bacterial suspension is diluted to obtain 100 colony forming units (cfu) in a microplate well (100 μl total volume).
Microplate wells were filled with two-fold dilutions of test compound (50 μl), starting with 64 μg/ml. Wells were then filled with 50 μl of bacterial inoculum (final volume: 100 μl/well). The plates were incubated at 37° C. for 18-24 hours (S. pneumoniae was grown in a CO2-enriched atmosphere).
On the technique in general: Broth dilution looks for growth in wells or tubes with falling amounts of substance.

The mark [1] stands for this setting: average, read-out: bDHFR Ki/(μM) avg.
[2] abbreviates: second part of table, read-out: bDHFR.

On to `Cc1ccc(C(C)N(CC2CC2)c2ncc3c(N)nc(N)nc3n2)c2ccccc12` (centres unmarked) [Compound 52], for which the Ki at bacterial DHFR (bDHFR) (setting [1]) turned out to be 0.022 µM. For the same molecule, the MIC with S. aureus came to 2 µg/mL (≈ 5.01 µM).
Taken in the same sequence, the figures for `CC(c1cccc2ccccc12)N(CCCCO)c1ncc2c(N)nc(N)nc2n1` (centres unmarked) [Compound 58] were 0.015 µM and 2 µg/mL (≈ 4.96 µM).
For `CCN(c1ncc2c(N)nc(N)nc2n1)[C@H](C)c1csc2ccccc12` [Compound 36], the Ki on bacterial DHFR (bDHFR) (setting [1]) and on bacterial DHFR (bDHFR) (setting [2]) was 0.005 µM throughout. Moreover, the MIC in the test with S. aureus is below 0.125 µg/mL.
Take `CCC(c1cccc2ccccc12)N(C)c1ncc2c(N)nc(N)nc2n1` (single isomer, unassigned) [Compound 41]: the Ki at bacterial DHFR (bDHFR) (setting [1]) was determined as 0.037 µM. Further, in the test with S. aureus, the MIC was below 0.125 µg/mL.
Turning to `CC(c1c2c(cc3ccccc13)CCCC2)N(C)c1ncc2c(N)nc(N)nc2n1` (centres unmarked) [Compound 27], the Ki at bacterial DHFR (bDHFR) (setting [1]) turned out to be 0.008 µM. Also, in the test with S. aureus, the MIC came out at 0.5 µg/mL (≈ 1.25 µM).
As for `Cc1ccc([C@@H](C)N(CC2CC2)c2ncc3c(N)nc(N)nc3n2)c2ccccc12` [Compound 54], the Ki at bacterial DHFR (bDHFR) (setting [1]) was found to be 0.01 µM. Moreover, in the test with S. aureus, the MIC was found to be 2 µg/mL (≈ 5.01 µM).
In the case of `CC(c1ccc(F)c2ccccc12)N(C)c1ncc2c(N)nc(N)nc2n1` (centres unmarked) [Compound 23], on bacterial DHFR (bDHFR) (setting [1]), the Ki came to 0.027 µM. In the test with S. aureus, the MIC worked out at 1 µg/mL (≈ 2.75 µM).
On to `CCCN(Cc1cnc2nc(N)nc(N)c2n1)c1ccccc1` [Compound 61], for which, on bacterial DHFR (bDHFR) (setting [1]), the Ki was determined as 0.013 µM. Moreover, in the test with S. aureus, the MIC worked out at 2 µg/mL (≈ 6.46 µM).
For `CC(c1cccc2ccccc12)N(CCc1cccc(F)c1)c1ncc2c(N)nc(N)nc2n1` (centres unmarked) [Compound 47], in that order: 0.023 µM and 2 µg/mL (≈ 4.41 µM).
As to `CCOc1ccc2ccccc2c1CN(C)c1ncc2c(N)nc(N)nc2n1` [Compound 29], the Ki at bacterial DHFR (bDHFR) (setting [1]) is 0.02 µM; on bacterial DHFR (bDHFR) (setting [2]), below 0.02 µM. For the same molecule, in the test with S. aureus, the MIC was below 0.125 µg/mL.
Take `CN(Cc1cnc2nc(N)nc(N)c2n1)c1cccc([N+](=O)[O-])c1` [Compound 21]: the Ki at bacterial DHFR (bDHFR) (setting [1]) and at bacterial DHFR (bDHFR) (setting [2]) was 0.082 µM each time. The MIC in the test on S. aureus is below 0.125 µg/mL.
In the case of `CCN(c1ncc2c(N)nc(N)nc2n1)[C@H](C)c1ccc(F)c2ccccc12` [Compound 37], the Ki at bacterial DHFR (bDHFR) (setting [1]) came to 0.003 µM. Further, in the test on S. aureus, the MIC is below 0.125 µg/mL.
For `CCC(c1ccc(F)c2ccccc12)N(C)c1ncc2c(N)nc(N)nc2n1` (centres unmarked) [Compound 40], in that order: 0.004 µM and below 0.125 µg/mL.
Taken in the same sequence, the figures for `C[C@H](c1csc2ccccc12)N(CC1CC1)c1ncc2c(N)nc(N)nc2n1` [Compound 59] were 0.005 µM and 2 µg/mL (≈ 5.11 µM).
For `CC(c1cccc2ccccc12)N(CCc1ccc(Cl)cc1)c1ncc2c(N)nc(N)nc2n1` (centres unmarked) [Compound 57], in that order: 0.011 µM and 2 µg/mL (≈ 4.26 µM).
`CCCOCCN(c1ncc2c(N)nc(N)nc2n1)C(C)c1cccc2ccccc12` (centres unmarked) [Compound 49]: the Ki on bacterial DHFR (bDHFR) (setting [1]) came to 0.02 µM. The MIC in the test with S. aureus came out at 2 µg/mL (≈ 4.79 µM).
In the case of `CCc1ccc2ccc(C(C)N(CC3CC3)c3ncc4c(N)nc(N)nc4n3)cc2c1` (centres unmarked) [Compound 53], the Ki at bacterial DHFR (bDHFR) (setting [1]) came to 0.03 µM. The MIC in the test on S. aureus was determined as 2 µg/mL (≈ 4.84 µM).
`CC(c1ccc(OCc2c(F)cccc2Cl)cc1)N(C)c1ncc2c(N)nc(N)nc2n1` (centres unmarked) [Compound 48]: the Ki on bacterial DHFR (bDHFR) (setting [1]) came to 0.007 µM. The MIC in the test on S. aureus came out at 2 µg/mL (≈ 4.41 µM).
Take `CC(c1cc(Cl)cc2ccccc12)N(C)c1ncc2c(N)nc(N)nc2n1` (centres unmarked) [Compound 35]: on bacterial DHFR (bDHFR) (setting [1]), the Ki is 0.037 µM. The MIC with S. aureus was 0.5 µg/mL (≈ 1.32 µM).
Turning to `CC(c1ccc(Cl)c2ccccc12)N(C)c1ncc2c(N)nc(N)nc2n1` (centres unmarked) [Compound 30], the Ki at bacterial DHFR (bDHFR) (setting [1]) is 0.028 µM; at bacterial DHFR (bDHFR) (setting [2]), 0.024 µM. For the same molecule, in the test with S. aureus, the MIC was below 0.125 µg/mL.
For the molecule `Cc1[nH]ncc1CCCN(c1ncc2c(N)nc(N)nc2n1)C(C)c1cccc2ccccc12` (centres unmarked) [Compound 51], the Ki at bacterial DHFR (bDHFR) (setting [1]) is 0.022 µM. The MIC in the test with S. aureus worked out at 2 µg/mL (≈ 4.41 µM).
For `Nc1nc(N)c2nc(CNc3cccc(OCc4ccccc4)c3)cnc2n1` [Compound 20], in that order: 0.062 µM and 0.5 µg/mL (≈ 1.34 µM).
In the case of `Nc1nc(N)c2nc(CNc3ccc(Cl)c4ccccc34)cnc2n1` [Compound 63], the Ki at bacterial DHFR (bDHFR) (setting [2]) came to 0.104 µM.
Consider `Cc1ccc(C(F)(F)F)cc1NCc1cnc2nc(N)nc(N)c2n1` [Compound 64], for which the Ki at bacterial DHFR (bDHFR) (setting [2]) stood at 0.385 µM.
